Assay [1] concerns ALL cell lines REH, RS4, 11 and 697 and primary ALL cells. Nature of the assay: MSC-mediated chemoresistance of ALL cell lines and primary ALL cells. Type of assay: cell-based, human. The method, then: FIG. 4. hERG1 activity regulates the chemoresistance induced by stromal cells in leukaemic cells a). […] The percentage of Annexin V +/ PI− cells was evaluated after 48 hours of culture.
For cell counting, after 48 hours of incubation at 37° C. and 5% di CO2, cells were recovered from the plates. We next evaluated the apoptosis. During apoptosis, a series of changes of plasma membrane occurs, one of these alterations of plasma membrane is the shift of phosphatidylserine (PS) from the inner to the outer surface of the cell. The recognition of PS by macrophage allows them to engulf the apoptotic cell, preventing the inflammatory process. The analysis of PS on the plasma membrane of apoptotic cells is performed by using annexin V-fluorescein and propidium iodide (PI) assay (Annexin-V-Fluos Staining Kit, Roche).
We then identified three cell populations: i) viable cells (annexin V-/propidium iodide-), ii) apoptotic cells (early apoptosis) (annexin V+), and iii) cells in late apoptosis or necrotic (annexin V+/propidium iodide+). All the cell lines (697, RS, REH) were cultured in the absence and in the presence of human bone marrow stromal cells (MSC) in order to reproduce as closely as possible the condition that occurs in the bone marrow.
After 48 hours of incubation, cells were separated from the stroma and processed for the analysis of apotosis.

Assay [2] deals with human leukaemic cells REH. Nature of the assay: In vivo model of human leukaemia: REH cells inoculated into NOD/SCID mice. As to the method:
FIG. 2. Effect of corticosteroids, inhibitors of hERG1 and of the combination corticosteroids/hERG1 inhibitors in an in vivo model of human leukaemia disease (human leukaemic cells REH inoculated into NOD/SCID mice). Cells were inoculated by injection into the caudal vein and seven days after the inoculum, animals were treated with E4031, Dexamethasone, Dexamethasone+E4031 for two weeks; control mice were treated, with the same schedule, solely with saline solution. At the end of the two weeks of treatment, animals were sacrificed and the spleen and bone marrow were removed. Bone marrow engraftment was evaluated by measuring the percentage of hCD45^+ cells versus mCD45^+ cells by flow cytometry. For the evaluation of apoptosis, the Tunel assay was performed on the histological sections of the treated animals.
In FIG. 2 the effects of corticosteroids, hERG1 inhibitors and combination of corticosteroids/hERG1 inhibitors in an in vivo model of human leukaemic disease (human leukaemic cells REH inoculated in NOD / SCID mice) is shown. The cells were inoculated by injection into the tail vein and seven days after injection, the animals were treated with E4031, dexamethasone, dexamethasone+E4031 for two weeks; the control mice were treated, according to the same protocol, only with saline.
At the end of two weeks of treatment the animals were sacrificed and the spleens and bone marrows were removed. The bone marrow engraftment was assessed by measuring the percentage of hCD45+cells versus mCD45+cells by flow cytometry. The Tunel assay for evaluation of apoptosis was performer on bone marrow histological sections from the control and treated animals.

Assay [3] concerns AML cell lines and primary samples. To be noted: administration of hERG1 blockers; cited from earlier work.
Assay [4] deals with ALL(3), ALL(4), ALL(6) cells. Put plainly: Annexin V/propidium iodide apoptosis of primary ALL cells cultured in the absence or presence of MSC. In kind it is cell-based, human. To be noted: FIG. 1C, co-culture with stromal cells.
Method: The analysis is performed with the flow cytometer FACScan (Becton Dickinson). […] We next evaluated the apoptosis. […] The analysis of PS on the plasma membrane of apoptotic cells is performed by using annexin V-fluorescein and propidium iodide (PI) assay (Annexin-V-Fluos Staining Kit, Roche). The protocol of annexin requie, first, the preparation of the reaction mix, containing 20 μl of annexin and 20 μl of propidium iodide diluted in 1 ml of incubation buffer (1 ml of such mix is enough for 10 samples). About 10^6 cells are washed with PBS and centrifuged at 200 g for 5 minutes; the cell pellet is then resuspend in 100 μl of the solution previously described and incubated for 10-15 min at 15-25° C. The samples are resuspended in 500 μl of incubation buffer, before proceeding to flow cytometry analysis. […] After 48 hours of incubation, cells were separated from the stroma and processed for the analysis of apotosis.

Regarding `Cc1cccc(CCN2CCC(C(=O)c3ccc(NS(C)(=O)=O)cc3)CC2)n1.Cl.Cl` [E4031, N-[4-[[1-[2-(6-Methyl-2-pyridyl)ethyl]-4-piperidinyl]carbonyl]phenyl]metanesolfonammide dihydrochloride], the MSC mediated chemoresistance result in assay [1] was “overcome”. In assay [2], the “effect on engraftment compared with dexamethasone alone” value was “higher than that produced by dexamethasone alone”. Also, in assay [2] (Tunel assay), the “apoptosis of ALL cells in the bone marrow” value was “increase”. In addition, in assay [2] (treatment for two weeks starting seven days after inoculum, hCD45+ versus mCD45+ cells), the “engraftment in the bone marrow” value is given as “reduced”. With `CN(CCN(C)S(=O)(=O)c1ccc(NS(C)(=O)=O)cc1)c1nc2ccccc2n1C.Cl` [Way 123,398, N-metil-N-(2-(metil(1-metil-1H-benzimidazol-2-il)amino)etil)((metilsolfonil)amino)benzensolfonammide HCl], in assay [3], the cellular growth entry is given as “impairs cellular growth”. Also, the MSC mediated chemoresistance result in assay [1] is recorded as “overcome”. On to `COc1cccc2c1C(=O)c1c(O)c3c(c(O)c1C2=O)C[C@@](O)(C(=O)CO)C[C@@H]3O[C@H]1C[C@H](N)[C@H](O)[C@H](C)O1` [doxorubicin], for which the “responsiveness of leukaemic cells co-cultured with stromal cells compared to leukaemic cells alone” value in assay [4] was “significantly less responsive”.

Turning to `CC[C@H]1OC(=O)[C@H](C)[C@@H](O[C@H]2C[C@@](C)(OC)[C@@H](O)[C@H](C)O2)[C@H](C)[C@@H](O[C@@H]2O[C@H](C)C[C@H](N(C)C)[C@H]2O)[C@](C)(O)C[C@@H](C)C(=O)[C@H](C)[C@@H](O)[C@]1(C)O` [erythromycin, 6-(4-dimethylamino-3-hydroxy-6-methyl-Ossan-2-yl) oxy-14-ethyl-7,12,13-triidrossi-4-(5-hydroxy-4 methoxy-4,6-dimethyl -Ossan-2-yl) oxy-3,5,7,9,11,13-esametil ossaciclotetradecan-1-2,10-dione], in assay [1], the MSC mediated chemoresistance result was “overcome”. Same read-out and setting: as for `O=C1NCCN1CCN1CCC(c2cn(-c3ccc(F)cc3)c3ccc(Cl)cc23)CC1` [sertindole, 1-(2-{4-[5-chloro-1-(4-FLUORO-PHENYL)-1H-indole-3-IL]-IL-1-Piperidine}-ethyl)-imidazolidin-2-ONE, 1-[2-[4-[5-Chloro-1-(4-fluorophenyl)-1H-indole-3-a]-1-piperidinyl]ethyl]-2-Imidazolidinone], the entry is “overcome”.

Values taken from US20120309704A1, “COMPOSITIONS FOR TREATMENT OF CHEMORESISTANT AND/OR POTENTIALLY CHEMORESISTANT LEUKAEMIAS” (priority 2009, published 2012).
